Measured values published in patent US8058039B2 (North American Bioproducts Corporation, priority 2008, dated 2011).
“And” between values parts separate entries of the source, which are not always exact repeats. Equal entries are not always repeated.

Assays:
Assay type in all cases: cell-based
[1] = test system: Pediococcus test organism along with “industry normal” Lactobacillus; test: Virginiamycin (V100) vs. Erythromycin (V200) comparative efficacy analysis, 24 well plate growth test in MRS broth; details: 33° C., read at 24 and 48 hours
Text: (§1) The antibiotics currently most often used at alcohol production plants are either Penicillin-based or Virginiamycin-based. This example compares the use of Bactenix V200, an Erythromycin-based antibiotic versus V100, a Virginiamycin-based antibiotic also available from NABC to control Pediococcus test organism along with “industry normal” Lactobacillus. The trial uses an alcohol water mixture to assure total dissolving of antibiotics. This assures that the correct concentrations of antibiotics are going into the test wells and thereby preventing under dosing during the trial. All bacteria tested were industry specific isolates that were obtained from actual mash samples from alcohol production plants. The trial was set up as follows: • 1. Dissolve 0.1 g of each of the antibiotics in 1 ml water and then add 5 ml of ethanol, vortex and bring up to 10 ml with sterile water to from a suspension. • 2. Dilute the previous suspension 1:10 with sterile water. This gives a one mg/ml concentration. • 3. Filter the suspension by running through a 0.2 μm syringe filter. • 4. Add antibiotics to MRS (DeMan, Rogosa and Sharpe) broth at the concentrations required for the test. • 5. Take two μl of a fresh 24-hour culture of the target organisms and add to the corresponding empty wells in a pre-labeled 24 well tissue culture plate. • 6. Add one ml of the appropriate antibiotic media to each well of the plate. • 7. Incubate at 33° C. for 24 hours. • 8. Read plates for bacterial growth and re-incubate the plates at 33° C. • 9. After 48 hours read and report the final results.

[2] = test system: bacteria encountered in ethanol production; test: Alcohol production plant trial, fermentor drop data (corn, batch fermentation)
Procedure: This trial was conducted at a 50 million gallon per year (m/g/y) dry grind fuel alcohol production facility utilizing corn as a fermentation substrate. Batch yeast propagation and fermentation process were utilized. Antimicrobials were added to the fermentor during the fill cycle at approximately 30% fill. No other changes were made to the process or chemical additions that would influence the fermentation kinetics monitored during 3 sets of fermentor batches listed below. The fermentation data was accumulated at the end (drop) of the fermentation process for each of the fermentors. […] See results in Table 2. […] See results in Table 3. […] See results in Table 4.

[3] = test system: Saccharomyces cerevisea yeast (BioFerm XR yeast); test: Impact of Erythromycin on the function and replication of yeast during lab scale corn mash fermentation; details: for Cell Count: number of cells in a given area
Procedure: A study was conducted to determine if the fermentation antimicrobial Erythromycin, interfered with cell growth and the fermentation function of Saccharomyces cerevisea yeast used in the fermentation phase of the production of fuel ethanol. […] This study looked at the ability of yeast to replicate and ferment a corn mash substrate with and without the presence of Erythromycin.
This study was set up in a series of fermentation vessels. All antibiotic concentrations were tested in triplicate. Cell counts were done on one flask for each treatment at 24 and 48 hours and final testing of the fermentation reactions by HPLC was performed at 48 hours. The experiment was set as follows:
1. Antibiotic solutions were prepared to provide a sterile 1 and 10 μg/ml solutions.
2. Antibiotic solutions tested were as follows:
A. Control (NA), no antibiotic
3. Fermentations were set up using 31% solids corn mash using saccharifying enzymes and the following procedure:
A. Yeast Conditioning: • 1. Add 2 g yeast to 10 mil sterile water for each 3 flasks to test, (10 g yeast to 50 ml water) into a sterile 250 ml flask and place in water bath set to 100° F. • 2. Incubate at 100° F. for 30 minutes with occasional mixing. • 3. Remove flasks from water bath and divide suspension between the all flasks for the trial.
B. Fermentation Procedure • 1. To prepared mash, add the following. • a. Add 0.58 g urea/liter mash and mix. • b. Add 0.2 ml GA per liter and mix. • 2. Remove sample for background HPLC testing. • 3. Add antibiotic solution to labeled sterile 250 ml flasks. • 4. Add hydrated yeast suspension to mash and mix well. • 5. Add sterile stir bar to each flask and add about 150 ml mash into each 250 ml flask for a total of 12 flasks. • Three flasks for each trial as follows: • a. First group, no antibiotic (NA) flasks 1-3 • b. […] Cover each flask with a gas trap in a sterilized stopper. • 7. Place in a 33° C. water bath with continuous mixing at 280 rpm at 75% power. • a. Turn power on to the magnetic stirrers after placing the flasks onto the platforms to move the stir bars; make sure that mixing is occurring in the flasks. • 8. Remove sample at 24 hours and perform cell count. • 9. Incubate sample for 48 hours, enough time for complete fermentation • 10. Collect samples at the following times for HPLC testing: • 0 hours (one per treatment); 24 hours; 48 hours • Perform 48 hour cell count on same flask as for 24 hour count.

[4] = test system: industry obtained Pediococcus bacteria; test: Virginiamycin (V100) vs. Erythromycin (V200) comparative efficacy analysis, 24 well plate growth test in MRS broth; details: 33° C., read at 24 and 48 hours
Text: as §1

[5] = 0.5 ppm Erythromycin vs 0.5 ppm Virginiamycin batches
[6] = Set 2 vs Sets 1 and 3, same amount of antibiotic
[7] = Set 2 “Erythromycin trial”, 0.5 ppm Erythromycin, at drop
[8] = Set 1 “Pre Erythromycin trial”, 0.5 ppm Virginiamycin, at drop
[9] = Set 3 “Post Erythromycin test”, 0.5 ppm Virginiamycin, at drop
[10] = Set 3 “Post Erythromycin test”, 0.5 ppm Virginiamycin, single fermentor batch at drop

CC[C@H]1OC(=O)[C@H](C)[C@@H](O[C@H]2C[C@@](C)(OC)[C@@H](O)[C@H](C)O2)[C@H](C)[C@@H](O[C@@H]2O[C@H](C)C[C@H](N(C)C)[C@H]2O)[C@](C)(O)C[C@@H](C)C(=O)[C@H](C)[C@@H](O)[C@]1(C)O [Erythromycin]
concentration effective against all organisms tested [1]: 0.5 ppm | decrease of lactic acid production during the erythromycin trial [2, 5]: 0.23% | increase of ethanol production during the erythromycin trial [2, 5]: 0.17% | production increase of ethanol per fermentor [2, 5]: 816 gallons of ethanol per fermentor | final ethanol production compared to Virginiamycin fermentors [2, 6]: increase in final ethanol production | glucose utilized compared to Virginiamycin fermentors [2, 6]: utilized the same amount of glucose | lactic acid compared to Virginiamycin fermentors [2, 6]: decrease in lactic acid | Acetic %, 27 batch average [2, 7]: 0.04% | EtOH %, 27 batch average [2, 7]: 15.84% | Glucose %, 27 batch average [2, 7]: 0.30% | Lactic %, 27 batch average [2, 7]: 0.27% | Acetic % ([2]; Set 2 “Erythromycin trial”, 0.5 ppm Erythromycin, single fermentor batch at drop): 0.03% and 0.04% and 0.05% and 0.02% and 0.06% | % Budding ([3]; Erythromycin 5 ppm, 24 hr): 8% | % Viable ([3]; Erythromycin 5 ppm, 24 hr): 82% | Cell Count ([3]; Erythromycin 5 ppm, 24 hr): 467 | % Budding ([3]; Erythromycin 5 ppm, 48 hr): 5% | % Viable ([3]; Erythromycin 5 ppm, 48 hr): 63% | Cell Count ([3]; Erythromycin 5 ppm, 48 hr): 430 | % Budding ([3]; Erythromycin 10 ppm, 24 hr): 8% | % Viable ([3]; Erythromycin 10 ppm, 24 hr): 80% | Cell Count ([3]; Erythromycin 10 ppm, 24 hr): 434 | % Budding ([3]; Erythromycin 10 ppm, 48 hr): 5% | % Viable ([3]; Erythromycin 10 ppm, 48 hr): 61% | Cell Count ([3]; Erythromycin 10 ppm, 48 hr): 454 | % Budding ([3]; Erythromycin 20 ppm, 24 hr): 7% | % Viable ([3]; Erythromycin 20 ppm, 24 hr): 85% | Cell Count ([3]; Erythromycin 20 ppm, 24 hr): 431 | % Budding ([3]; Erythromycin 20 ppm, 48 hr): 4% | % Viable ([3]; Erythromycin 20 ppm, 48 hr): 62% | Cell Count ([3]; Erythromycin 20 ppm, 48 hr): 446 | yeast growth with Erythromycin present vs without ([3]; at 48 hr): marginal better | adverse effect on the yeast ([3]; used up to 20 ppm): no discernable adverse effect

Virginiamycin
effectiveness against all organisms tested [1]: not effective against all organisms tested | inclusion rate up to which Pediococcus was not controlled [4]: > 3.0 ppm | Acetic %, 28 batch average [2, 8]: 0.04% | EtOH %, 28 batch average [2, 8]: 15.67% | Glucose %, 28 batch average [2, 8]: 0.29% | Lactic %, 28 batch average [2, 8]: 0.50% | Acetic % ([2]; Set 1 “Pre Erythromycin trial”, 0.5 ppm Virginiamycin, single fermentor batch at drop): 0.02% and 0.03% and 0.04% and 0.13% and 0.05% | Acetic %, 8 batch average [2, 9]: 0.04% | EtOH %, 8 batch average [2, 9]: 15.58% | Glucose %, 8 batch average [2, 9]: 0.32% | Lactic %, 8 batch average [2, 9]: 0.47% | Acetic % [2, 10]: 0.04% and 0.03% and 0.05% | EtOH % [2, 10]: 15.77% and 15.53% and 15.28% and 15.73% and 15.78% and 15.5% and 15.56% and 15.52% | Glucose % [2, 10]: 0.35% and 0.29% and 0.31% and 0.33% and 0.3% and 0.32% | Lactic % [2, 10]: 0.44% and 0.54% and 0.70% and 0.38% and 0.43% and 0.50% and 0.40%
